Measurements from ChEMBL document CHEMBL4052685, “Design, synthesis and tumor cell growth inhibitory activity of 3-nitro-2H-cheromene derivatives as histone deacetylaes inhibitors” (Bioorg Med Chem, 2017).

Assays:
PC-3 = assay: Antiproliferative activity against human PC3 cells after 48 hrs by MTT assay; assay type: functional
A549 = assay: Antiproliferative activity against human A549 cells after 48 hrs by MTT assay; assay type: functional
HeLa = assay: Antiproliferative activity against human HeLa cells after 48 hrs by MTT assay; assay type: functional
MCF7 = assay: Antiproliferative activity against human MCF7 cells after 48 hrs by MTT assay; assay type: functional
K562 = assay: Antiproliferative activity against human K562 cells after 48 hrs by MTT assay; assay type: functional
Histone deacetylase 2 [1] = target: T1, Histone deacetylase 2 (Homo sapiens, UniProt Q92769); conditions: at 10 µM
Description: Inhibition of HDAC2 (unknown origin) at 10 uM using Ac-Leu-GlyLys(Ac)-AMC as substrate preincubated for 10 mins followed by substrate addition measured after 30 mins by fluorescence analysis

Histone deacetylase 1 = Histone deacetylase 1 (Homo sapiens, UniProt Q13547); assay: Inhibition of HDAC1 (unknown origin) using Ac-Leu-GlyLys(Ac)-AMC as substrate preincubated for 10 mins followed by substrate addition measured after 30 mins by fluorescence analysis
Histone deacetylase 2 [2] = target: T1, Histone deacetylase 2; assay: Inhibition of HDAC2 (unknown origin) using Ac-Leu-GlyLys(Ac)-AMC as substrate preincubated for 10 mins followed by substrate addition measured after 30 mins by fluorescence analysis

Sequence of Histone deacetylase 1 (Q13547 whole entry): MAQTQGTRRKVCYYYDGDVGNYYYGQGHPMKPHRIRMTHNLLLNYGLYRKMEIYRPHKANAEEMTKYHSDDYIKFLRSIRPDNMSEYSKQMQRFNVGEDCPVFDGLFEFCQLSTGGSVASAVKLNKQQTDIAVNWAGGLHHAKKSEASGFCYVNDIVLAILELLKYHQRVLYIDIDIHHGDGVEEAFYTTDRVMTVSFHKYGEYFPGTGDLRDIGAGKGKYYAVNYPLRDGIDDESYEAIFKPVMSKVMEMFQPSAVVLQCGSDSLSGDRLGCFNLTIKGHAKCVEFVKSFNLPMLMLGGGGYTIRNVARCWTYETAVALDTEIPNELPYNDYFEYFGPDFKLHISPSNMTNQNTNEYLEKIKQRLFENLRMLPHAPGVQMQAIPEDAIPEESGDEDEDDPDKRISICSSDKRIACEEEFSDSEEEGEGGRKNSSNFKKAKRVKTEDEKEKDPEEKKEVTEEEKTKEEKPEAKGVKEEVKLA
T1 sequence (Q92769 whole entry): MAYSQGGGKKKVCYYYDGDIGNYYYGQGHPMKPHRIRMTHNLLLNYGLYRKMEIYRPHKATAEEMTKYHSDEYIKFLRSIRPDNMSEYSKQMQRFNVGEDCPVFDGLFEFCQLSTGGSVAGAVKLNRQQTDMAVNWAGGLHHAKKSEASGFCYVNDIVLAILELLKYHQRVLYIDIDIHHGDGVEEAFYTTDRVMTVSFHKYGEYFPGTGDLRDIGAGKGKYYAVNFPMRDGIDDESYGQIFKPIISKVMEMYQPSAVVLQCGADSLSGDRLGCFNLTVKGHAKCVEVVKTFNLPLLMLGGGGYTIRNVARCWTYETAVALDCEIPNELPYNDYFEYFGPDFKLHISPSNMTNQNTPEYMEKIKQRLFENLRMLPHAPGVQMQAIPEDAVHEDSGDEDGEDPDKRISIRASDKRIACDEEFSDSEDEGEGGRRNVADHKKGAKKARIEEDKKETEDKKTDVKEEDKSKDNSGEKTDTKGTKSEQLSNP

Row | Structure (SMILES) | GI50 (PC-3; Homo sapiens, PC-3, 48 h) [µM] | GI50 (A549; Homo sapiens, A549, 48 h) [µM] | GI50 (HeLa; Homo sapiens, HeLa, 48 h) [µM] | GI50 (MCF7; Homo sapiens, MCF7, 48 h) [µM] | GI50 (K562; Homo sapiens, K562, 48 h) [µM] | inhibition (Histone deacetylase 2 [1]) [%] | IC50 (Histone deacetylase 1) [nM] | IC50 (Histone deacetylase 2 [2]) [nM] | GI50 (PC-3) [µM] | GI50 (A549) [µM] | GI50 (HeLa) [µM] | GI50 (MCF7) [µM] | GI50 (K562) [µM]
1 | CCOc1cc(NC(=O)CCCCCNC(=O)Cc2ccccc2)cc2c1OCC([N+](=O)[O-])=C2 | 13.2 | 4.8 | 5.8 | 4.17 | 1.53 | 0 | – | – | – | – | – | – | –
2 | CCOc1cc(NC(=O)CCCCCCC(=O)Nc2cc(-c3ccc(C)s3)ccc2N)cc2c1OCC([N+](=O)[O-])=C2 | 6.36 | 5.83 | > 20 | 5.33 | 3.11 | 55 | – | – | – | – | – | – | –
3 | CCOc1cc(NC(=O)CCCCCC(=O)Nc2cc(-c3ccc(C)s3)ccc2N)cc2c1OCC([N+](=O)[O-])=C2 | 11.4 | 5.07 | > 20 | > 20 | 2.92 | 62 | 366 | 1790 | – | – | – | – | –
4 | CCOc1cc(NC(=O)CCCCCCC(=O)Nc2ccccc2N)cc2c1OCC([N+](=O)[O-])=C2 | 8.63 | 11.7 | > 20 | 13.5 | 3.36 | 93 | 232 | 439 | – | – | – | – | –
5 | CCOc1cc(NC(=O)CCCCC(=O)Nc2cc(-c3ccc(C)s3)ccc2N)cc2c1OCC([N+](=O)[O-])=C2 | 13.5 | 13.8 | 18.4 | 7.91 | 2.94 | 32 | – | – | – | – | – | – | –
6 | CCOc1cc(NC(=O)CCCCC(=O)Nc2ccccc2N)cc2c1OCC([N+](=O)[O-])=C2 | 18.9 | 9.63 | 13.1 | 17.3 | 3.68 | 91 | – | – | – | – | – | – | –
7 | CCOc1cc(NC(=O)CCCCC(=O)Nc2cc(-c3ccccc3)ccc2N)cc2c1OCC([N+](=O)[O-])=C2 | 14.6 | 7.46 | > 20 | 19.9 | 5.27 | 59 | – | – | – | – | – | – | –
8 | O=C(CCCCCCC(=O)Nc1ccccc1)NO [VORINOSTAT] | – | – | – | – | – | – | – | – | 18.8 | 19.4 | 19.2 | 17.9 | 3.66
9 | CCOc1cc(NC(=O)CCCCCNC(=O)[C@H](N)Cc2ccccc2)cc2c1OCC([N+](=O)[O-])=C2 | – | – | – | – | – | – | 448 | 1290 | – | – | – | – | –
10 | CCOc1cc(NC(=O)CCCCC(=O)NCCc2ccccc2)cc2c1OCC([N+](=O)[O-])=C2 | 6.46 | 6.42 | 9.33 | 2.82 | 2.9 | 3 | – | – | – | – | – | – | –
11 | CCOc1cc(NC(=O)CCCCCC(=O)Nc2cc(-c3ccccc3)ccc2N)cc2c1OCC([N+](=O)[O-])=C2 | 7.08 | 4.86 | 19.8 | 7.03 | 3.21 | 81 | 128 | 659 | – | – | – | – | –
12 | CCOc1cc(NC(=O)CCCCCC(=O)Nc2ccccc2N)cc2c1OCC([N+](=O)[O-])=C2 | > 20 | 12.2 | 14.9 | 19.4 | 3.96 | 96 | 288 | 759 | – | – | – | – | –
13 | CCOc1cc(NC(=O)CCCCCC(=O)NCCc2ccccc2)cc2c1OCC([N+](=O)[O-])=C2 | 7.09 | 5.32 | 6.08 | 6.12 | 3.47 | 0 | – | – | – | – | – | – | –
14 | CCOc1cc(NC(=O)CCCCNC(=O)[C@H](N)Cc2ccccc2)cc2c1OCC([N+](=O)[O-])=C2 | 11.2 | 5.95 | > 20 | 8.72 | 3.56 | 90 | 742 | 2910 | – | – | – | – | –
15 | CCOc1cc(NC(=O)CCCCCCC(=O)Nc2cc(-c3ccccc3)ccc2N)cc2c1OCC([N+](=O)[O-])=C2 | 10.7 | 5.4 | 16.2 | 9.37 | 2 | 72 | 179 | 827 | – | – | – | – | –
16 | CCOc1cc(NC(=O)CCCCCNC(=O)CCCc2ccccc2)cc2c1OCC([N+](=O)[O-])=C2 | 7.17 | 5.23 | 6.74 | 5.96 | 3.32 | 8 | – | – | – | – | – | – | –
17 | CCOc1cc(NC(=O)CCCCCCC(=O)NCCc2ccccc2)cc2c1OCC([N+](=O)[O-])=C2 | 10.9 | 18.2 | > 20 | 19.1 | 4.12 | 8 | – | – | – | – | – | – | –
18 | Nc1ccccc1NC(=O)c1ccc(CNC(=O)OCc2cccnc2)cc1 [ENTINOSTAT] | 19.1 | 18.4 | 19.2 | 19.3 | 9.32 | 98 | – | – | – | – | – | – | –
